Experimental data published in PubChem BioAssay AID1259408 (Genetic Toxicology Data Bank (GENE-TOX), 2018).
Calls of active or inactive are those of the source. No rule for the calls is given here.

System: GENE-TOX genotoxicity assays, various organisms and cells
Experiment: GENE-TOX mutagenicity studies
Settings: for call: Assay Type: In vivo carcinogenicity studies
[1] = Species/Cell Type: Bacillus subtilis (H17 vs M45T), Assay Type: Rec-assay, spot test, DNA effects (bacterial DNA repair), Assay Code: REXT, Evaluation Type: Evaluation A (Pre-1980)
[2] = Species/Cell Type: Chinese hamster ovary (CHO) cells, Assay Type: Forward gene mutation at the HPRT locus, Assay Code: CHO+, Evaluation Type: Evaluation B (Post-1980)

O=[As](=O)O[As](=O)=O
mutagenic call (Species/Cell Type: Bacillus subtilis (H17 vs M45), Assay Type: Rec-assay, spot test, DNA effects (bacterial DNA repair), Assay Code: REW+, Evaluation Type: Evaluation A (Pre-1980)): active; positive
mutagenic call (Species/Cell Type: Nonhuman, Assay Type: Sister-chromatid exchange (SCE) in vitro, Assay Code: SC2+, Evaluation Type: Evaluation B (Post-1980)): active; positive

CN(C)c1ccc2cc3ccc(N(C)C)cc3nc2c1
mutagenic call (Species/Cell Type: Allium cepa, Assay Type: Chromosome aberrations, Assay Code: ALC+D, Dose Response: With dose response, Evaluation Type: Evaluation A (Pre-1980)): active; positive
mutagenic call [1]: no conclusion
mutagenic call [2]: active; positive
mutagenic call (Species/Cell Type: Drosophila melanogaster, Assay Type: Sex-linked recessive lethal gene mutation, Assay Code: SRLT, Evaluation Type: Evaluation A (Pre-1980)): no conclusion
mutagenic call (Species/Cell Type: Escherichia coli polA (W3119 vs P3478), Assay Type: Rec-assay, DNA effects (bacterial DNA repair), Assay Code: RE1+, Evaluation Type: Evaluation A (Pre-1980)): active; positive
mutagenic call (Species/Cell Type: Human lymphocytes, Assay Type: Sister-chromatid exchange (SCE) in vitro, Assay Code: SCL+, Evaluation Type: Evaluation B (Post-1980)): active; positive
mutagenic call (Species/Cell Type: Human, Assay Type: Sister-chromatid exchange (SCE) in vitro, Assay Code: SC1+, Evaluation Type: Evaluation B (Post-1980)): active; positive
mutagenic call (Species/Cell Type: Mammalian polychromatic erythrocytes, Assay Type: Micronucleus test, chromosome aberrations, Assay Code: MNT+, Evaluation Type: Evaluation B (Post-1980)): active; positive
mutagenic call (Species/Cell Type: Mouse, Sex: Female, Assay Type: Spot test, gene mutation, Assay Code: MST+, Evaluation Type: Evaluation A (Pre-1980)): active; positive
call (Species/Cell Type: Nonhuman, Assay Code: CCGT, Evaluation Type: Evaluation A (Pre-1980)): no conclusion
mutagenic call (Species/Cell Type: Nonhuman, Assay Type: Sister-chromatid exchange (SCE) in vitro, Assay Code: SC2+D, Dose Response: With dose response, Evaluation Type: Evaluation A (Pre-1980)): active; positive
mutagenic call (Species/Cell Type: Saccharomyces cerevisiae, Assay Type: Forward gene mutation, Assay Code: YEFT, Evaluation Type: Evaluation A (Pre-1980)): no conclusion
mutagenic call (Species/Cell Type: Saccharomyces cerevisiae, Assay Type: Mitotic recombination or gene conversion, Assay Code: YEC+, Evaluation Type: Evaluation A (Pre-1980)): active; positive
mutagenic call (Species/Cell Type: Saccharomyces cerevisiae, Assay Type: Mitotic recombination or gene conversion, Assay Code: YEH+, Evaluation Type: Evaluation A (Pre-1980)): active; positive
mutagenic call (Species/Cell Type: Salmonella typhimurium (one or more of the five standard strains: TA98, TA100, TA1535, TA1537, and TA1538), Assay Type: Histidine reverse gene mutation, Ames assay, Assay Code: SAL+*, Activation: With metabolic activation, Evaluation Type: Evaluation A (Pre-1980)): active; positive
mutagenic call (Species/Cell Type: Salmonella typhimurium, Assay Type: Forward and reverse gene mutation, host-mediated assay, Assay Code: HMA+, Evaluation Type: Evaluation A (Pre-1980)): active; positive
mutagenic call (Species/Cell Type: Syrian hamster embryo (SA7/SHE) cells, Assay Type: Cell transformation, viral enhanced, Assay Code: CT7+, Evaluation Type: Evaluation A (Pre-1980)): active; positive
mutagenic call (Species/Cell Type: Syrian hamster embryo (SHE) cells, Assay Type: Cell transformation, clonal assay, Assay Code: CTCT, Evaluation Type: Evaluation A (Pre-1980)): no conclusion

CCCCOc1ccc2nc3cc(Cl)ccc3c(NCCCN(CC)CCCl)c2n1
mutagenic call [2]: active; positive

Cc1ccccc1N=Nc1c(O)ccc2ccccc12
mutagenic call [1]: no conclusion
call (Species/Cell Type: Nonhuman, Assay Code: CCG+, Evaluation Type: Evaluation A (Pre-1980)): active; positive
